Source: publication PMC2898662, “Midkine inhibitors: application of a simple assay procedure to screening of inhibitory compounds” (International Archives of Medicine, 2010)
Ends that are not written are not given here. Peptide text beside a SMILES is read from it.

Assays:
UMR106 cells = assay: Toxicity to UMR106 target cells in culture
Description: These 10 compounds were surveyed for the activity to inhibit midkine activity.

midkine [1] = target: T1, midkine (Homo sapiens, UniProt P21741); assay: Midkine activity: midkine-dependent migration of UMR106 cells (Chemotaxicell); type: cell-based; conditions: filter coated with 20 μg/ml midkine, 4 h, OD 590 nm
T1 construct: made in house; host or cells: yeast
T1 sequence (P21741 23-143 limits assumed): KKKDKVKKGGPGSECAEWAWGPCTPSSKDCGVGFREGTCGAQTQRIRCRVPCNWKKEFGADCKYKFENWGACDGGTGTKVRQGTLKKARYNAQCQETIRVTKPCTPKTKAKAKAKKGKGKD
Procedure: Midkine activity was determined by promotion of migration of UMR106 (ATTC No. 1661) cells. Chemotaxicell (pore size 8 micron, Kurabo Industries Ltd., Japan) was coated with 20 μg/ml of midkine at the lower surface of the filter for 1 h, and washed with Dulbecco's phosphate-buffered saline (PBS) twice. UMR106 cells (2 × 10^5 cells in 0.2 ml of Dulbecco's modified Eagle's medium with 0.3% bovine serum albumin) were added to the upper chamber. The lower chamber contained 0.5 ml of the same medium. Cells were cultured for 4 h. The inner Chemotaxicell was cleaned with PBS, and cells were fixed with 100% methanol at room temperature for 20 min. The inner cell was cleaned with cotton bar, and the migrated cells were stained with 1% crystal violet at room temperature for 30 min., and were washed with H2O. The cells were extracted with 0.2 ml of 1% SDS with 1% Triton X-100 for 1 h upon agitation. Then extract of 0.15 ml was transferred to a 96 well plate and OD 590 nm was determined. Upon inhibition assay using low molecular weight compounds, they were dissolved in ethanol and were added to the lower chamber so that the final ethanol concentration was 2%. The control contained also 2% ethanol in this occasion. Inhibition assay using peptides was performed by adding them dissolved in H2O. Assay was done in duplicate.

midkine [2] = target: T1, midkine; assay: Binding activity to midkine by surface plasmon assay (BIACORE 3000); conditions: BIACORE 3000, midkine immobilised on CM5 chip; peptides 5 μg/ml in 10 mM HEPES-NaOH pH 7.4, 0.15 M NaCl, 0.0005% Tween 20; 25°C; read-out: Binding constant to midkine
Procedure: Binding activity to midkine was evaluated in the BIACORE 3000 System (GE Healthcare, UK Ltd). A CM5 sensor chip coated with carboxymethyldextran was activated by injecting a solution (1:1) of 200 mM N-ethyl-N'-(3-dimethylaminopropyl) carbodiimide hydrochloride and 100 mM N-hydroxysuccinimide at a flow rate of 10 μl/min. A 70 μl aliquot of midkine solution (50 μg/ml in 10 mM acetate buffer, pH 5.0) was injected for immobilization. The remaining activated N-hydroxysuccinimide ester groups were blocked by injecting 1 M ethanolamine hydrochloride/NaOH, pH 8.5, and washed with 10 μl of 1 M NaCl. Peptides (5 μg/ml) in the running buffer (10 mM HEPES-NaOH, pH 7.4, containing 0.15 M NaCl and 0.0005% Tween 20) were injected into the flow cell, and the change in resonance units was recorded. Binding assays were performed at 25°C with a constant flow rate of […] in both association and dissociation phases.

[3] = peptide added to culture of UMR106 cells at 1 mg/ml
[4] = peptide 1 mg/ml in lower chamber, dissolved in H2O, control without material = 100, duplicate

Migration activity (%) (midkine [1]; [4]) | Kd (midkine [2]) [nM] | Compound | further results
43.7 ± 12.8 | 270 | CC[C@H](C)[C@H](NC(=O)[C@H](CS)NC(=O)[C@H](CCC(=O)O)NC(=O)CNC(=O)[C@H](CS)NC(=O)[C@H](CO)NC(=O)[C@H](CCCCN)NC(=O)[C@H](C)NC(=O)[C@H](CC(N)=O)NC(=O)[C@H](C)NC(=O)[C@@H](N)CCCCN)C(=O)O [KA11] (H-KANAKSCGECI-OH) | Toxicity to UMR106 cells (UMR106 cells; [3]): no toxicity was observed
107 ± 2 | 230 | MQSTIRE [MQ7] | 
69.4 ± 46.1 | 450 | PAKLRNPCT [PA9] | 
99.5 ± 10.6 |  | QETIRVTKPC [QE10, midkine-derived peptide … from β-sheet of C-terminal half] | 
44.0 ± 10.5 |  | YKFENWGACDGG [YK12, midkine-derived peptide … from β-sheet of C-terminal half] | Inhibition of cell-substratum adhesion of UMR106 cells (UMR106 cells; [3]): inhibition of cell-substratum adhesion was observed in a certain occasion; Toxicity to UMR106 cells (UMR106 cells; [3]): no toxicity was observed

Second part, the compound before the results:

Compound | Migration activity (%) (midkine [1]; [4]) | Kd (midkine [2]) [nM] | further results
CC1CCCC(C)N1c1nc(-c2cccs2)cc(C(F)(F)F)n1 (stereo not shown) [Compound I, 2-(2,6-dimethylpiperidin-1-yl)-4-thiophen-2-yl-6-(trifluoromethy)pyrimidine] |  |  | Toxicity to the target cells (UMR106 cells; at the concentration used for the migration assay (Compound I 0.146 mg/ml, Compound II 0.10 mg/ml)): no toxicity; Migration activity (%) (midkine [1]; compound 0.146 mg/ml in lower chamber, 2% ethanol, control = 100, duplicate): 43.8 ± 10.2%
AMETNLV [AM7] | 99.5 ± 6.9 | 950 | 
GTGTKVRQGTL [GT11, midkine-derived peptide … from β-sheet of C-terminal half] | 156 ± 6 |  | 
IENPRGSKDIKKNKN [IE15] | 113 ± 10.1 | 300 | 
KQNQVKFGS [KQ9] | 107 ± 15 | 200 | 
TFSQRIEG [TF8] | 105 ± 24 | 140 | 
